In patent US12509482B2, “3′-ketoglycoside compound for the slow release of a volatile alcohol” (GLYCOSCIENCE, S.L., priority 2020, dated 2025):
Each block holds one molecule with its values, some of them ahead of it.

How the values were obtained:
Format in all cases: physicochemical
[1] = Example 24: release of geraniol from geranyl-3′-keto-2′-deoxyglucopyranoside vs 2′-deoxyglucopyranoside, 0.1 M deuterated phosphate buffer or D2O, 50% D6-DMSO, 32° C.
Experimental: In this example the rate of release of geraniol from (2R,3R)-6-(((E)-3,7-dimethylocta-2,6-dien-1-yl)oxy)-3-hydroxy-2-(hydroxymethyl)tetrahydro-4H-pyran-4-one in (geranyl-3′-keto-2′-deoxyglucopyranoside) 0.1 M deuterated phosphate buffer solutions of differing pH containing 50% D6-DMSO was determined.
(§1) 0.1 M of pH 5.8 and 7.4 stock buffered solutions of sodium dihydrogen phosphate and disodium hydrogen phosphate were prepared in deuterated water (D2O).
A stock solution of 15 mg of geraniol-O-β-D-3′-keto-2′-deoxyglucopyranoside in 1.5 mL of D6-DMSO were prepared.
(§2) After times indicated in table below, the mixtures where analysed by ^1H-NMR in a 400 MHz instrument.

[2] = Example 23: release of methanol from methyl-O-α-D-3′-ketomannopyranoside vs methyl-O-α-D-mannopyranoside, 0.1 M deuterated phosphate buffer or D2O, 15% D6-DMSO, 32° C.
Experimental: In this example the rate of release of methanol from (2R,3R,5R,6S)-3,5-dihydroxy-2-(hydroxymethyl)-6-methoxytetrahydro-4H-pyran-4-one (methyl-O-α-D-3′-ketomannopyranoside) vs. (2R,3S,4S,5S,6S)-2-(hydroxymethyl)-6-methoxytetrahydro-2H-pyran-3,4,5-triol (methyl-O-α-D-mannopyranoside) in D2O containing 15% D6-DMSO or in 0.1 M deuterated phosphate buffer solutions of differing pH containing 15% D6-DMSO or in D2O was determined.
as §1
A stock solution of 25 mg of methyl-O-α-D-3′-ketoglucomannoside in 1.0 mL of D6-DMSO were prepared.
as §2

[3] = Example 25: release of geraniol from geranyl-O-β-D-2′-acetamido-2′-deoxy-3′-keto-glucopyranoside vs geranyl-β-2′-acetamido-2′-deoxy-glucopyranoside, 0.1 M deuterated phosphate buffer or D2O, 33% D6-DMSO, 32° C.; details: for stability / geraniol release (in words): 32° C.
Description: In this example the rate of release of geraniol from N-((2R,3S,5R,6R)-2-(((E)-3,7-dimethylocta-2,6-dien-1-yl)oxy)-5-hydroxy-6-(hydroxymethyl)-4-oxotetrahydro-2H-pyran-3-yl)acetamide (geranyl-O-β-D-2′-acetamido-2′-deoxy-3′-keto-glucopyranoside) vs. N-((2R,3R,4R,5S,6R)-2-(((E)-3,7-dimethylocta-2,6-dien-1-yl)oxy)-4,5-dihydroxy-6-(hydroxymethyl)tetrahydro-2H-pyran-3-yl)acetamide (geranyl-R-2′-acetamido-2′-deoxy-glucopyranoside) in D2O containing 33% D6-DMSO or in 0.1 M deuterated phosphate buffer solutions of differing pH containing 33% D6-DMSO or in D2O was determined.
as §1
A stock solution of 25 mg of geranyl-O-β-D-2′-acetamido-2′-deoxy-3′-keto-glucopyranoside in 1.0 mL of D6-DMSO were prepared.
To four parallel reaction vials, where indicated in the reaction table below, was added 0.20 mL of the glycoside substrate solutions in D6-DMSO and 0.40 mL of low or high pH 0.1M phosphate buffer in D2O and the mixtures incubated by shaking at 32° C. After times indicated in table below, the mixtures where analysed by ^1H-NMR in a 400 MHz instrument.

[4] = Example 22: competitive release of para-nitrophenol from an approximately equimolar solution of 4-nitrophenyl-O-β-D- and -O-α-D-3′-ketoglucopyranoside, 32° C., 1H NMR integrals
Description: In this example the competitive rate of release of para-nitrophenol from an approximately equimolar solution of (2R,5S,6S)-3,5-dihydroxy-2-(hydroxymethyl)-6-(4-nitrophenoxy)tetrahydro-4H-pyran-4-one (4-nitrophenyl-O-β-D-3′-ketoglucopyranoside) and (2R,5S,6S)-3,5-dihydroxy-2-(hydroxymethyl)-6-(4-nitrophenoxy)tetrahydro-4H-pyran-4-one (4-nitrophenyl-O-α-D-3′-ketoglucopyranoside) in D2O containing 1.5% D6-DMSO or in 0.1 M deuterated phosphate buffer, pH 5.8 containing 1.5% D6-DMSO or in D2O was determined.
A solution containing approximately 2 mg each of 4-nitrophenyl-O-β-D-3′-ketoglucopyranoside and 4-nitrophenyl-O-α-D-3′-ketoglucopyranoside was prepared in 1 mL of D2O containing 3.3% v/v D6-DMSO. To two 0.375 mL portions of the resultant solution was added either D2O (0.5 mL) or 0.1M sodium phosphate buffer, pH 5.8 (0.5 mL) to given reactions 1 and 2 respectively. The resultant mixtures were analysed by ^1H NMR directly following preparation then incubated at 32° C./80 rpm and periodically analysed by ^1H NMR at recorded time points.
The change in the ratio between the integrals of the anomeric protons of each ketoglucoside and between the were sum of the anomeric protons and the anomeric protons of each ketoglucoside with time are shown in Table IX: […]

[5] = Reaction 2, 0.1M sodium phosphate buffer, pH 5.8, 0 h
[6] = Reaction 2, 0.1M sodium phosphate buffer, pH 5.8, 20 h
[7] = Reaction 2, 0.1M sodium phosphate buffer, pH 5.8, 45 h

stability / geraniol release (in words) [1]: remains stable at pH 7.4
% Conversion by 1H-NMR ([1]; pH 7.4, 0 h): 0%
% Conversion by 1H-NMR ([1]; pH 7.4, 1 h): 0%
% Conversion by 1H-NMR ([1]; pH 7.4, 72 h): 0%
% Conversion by 1H-NMR ([1]; pH 7.4, 144 h): 0%
% Conversion by 1H-NMR ([1]; pH 7.4, 288 h): 0%
SMILES: CC(C)=CCC/C(C)=C/CO[C@H]1C[C@@H](O)[C@H](O)[C@@H](CO)O1 [geranyl-O-2′-deoxyglucopyranoside, geranyl 2′-deoxy-β-D-glucopyranoside, reference compound]

% Conversion by 1H-NMR ([2]; D2O, 0 h): 0%
% Conversion by 1H-NMR ([2]; D2O, 22 h): 0%
% Conversion by 1H-NMR ([2]; pH 5.8, 0 h): 0%
% Conversion by 1H-NMR ([2]; pH 5.8, 22 h): 71%
% Conversion by 1H-NMR ([2]; pH 5.8, 96 h): 78%
% Conversion by 1H-NMR ([2]; pH 5.8, 192 h): 78%
% Conversion by 1H-NMR ([2]; pH 7.4, 0 h): 0%
% Conversion by 1H-NMR ([2]; pH 7.4, 22 h): 54%
% Conversion by 1H-NMR ([2]; pH 7.4, 96 h): 74%
% Conversion by 1H-NMR ([2]; pH 7.4, 192 h): 88%
SMILES: CO[C@H]1O[C@H](CO)[C@@H](O)C(=O)[C@@H]1O [methyl-O-α-D-3′-ketomannopyranoside, (2R,3R,5R,6S)-3,5-dihydroxy-2-(hydroxy-methyl)-6-methoxytetrahydro-4H-pyran-4-one]
stability / methanol release (in words) ([2]; 4.2 mg/mL): generates methanol at both pH 5.8 and pH 7.4

stability / geraniol release (in words) [3]: remains stable at pH 7.4
% Conversion by 1H-NMR ([3]; pH 7.4, 0 h): 0%
% Conversion by 1H-NMR ([3]; pH 7.4, 1.5 h): 0%
% Conversion by 1H-NMR ([3]; pH 7.4, 22 h): 0%
% Conversion by 1H-NMR ([3]; pH 7.4, 48 h): 0%
% Conversion by 1H-NMR ([3]; pH 7.4, 216 h): 0%
SMILES: CC(=O)N[C@H]1[C@H](OC/C=C(\C)CCC=C(C)C)O[C@H](CO)[C@@H](O)[C@@H]1O [N-((2R,3R,4R,5S,6R)-2-(((E)-3,7-dimethylocta-2,6-dien-1-yl)oxy)-4,5-dihydroxy-6-(hydroxymethyl)tetrahydro-2H-pyran-3-yl)acetamide, reference compound]

% Conversion by 1H-NMR ([1]; D2O, 0 h): 0%
% Conversion by 1H-NMR ([1]; D2O, 1 h): 0%
% Conversion by 1H-NMR ([1]; D2O, 72 h): <5%
% Conversion by 1H-NMR ([1]; D2O, 144 h): <5%
% Conversion by 1H-NMR ([1]; pH 5.8, 0 h): 0%
% Conversion by 1H-NMR ([1]; pH 5.8, 1 h): 5%
% Conversion by 1H-NMR ([1]; pH 5.8, 72 h): 32%
% Conversion by 1H-NMR ([1]; pH 5.8, 144 h): 38%
% Conversion by 1H-NMR ([1]; pH 5.8, 288 h): 47%
% Conversion by 1H-NMR ([1]; pH 7.4, 0 h): 0%
% Conversion by 1H-NMR ([1]; pH 7.4, 1 h): 6%
% Conversion by 1H-NMR ([1]; pH 7.4, 72 h): 57%
% Conversion by 1H-NMR ([1]; pH 7.4, 144 h): 88%
% Conversion by 1H-NMR ([1]; pH 7.4, 288 h): 100%
SMILES: CC(C)=CCC/C(C)=C/CO[C@H]1CC(=O)[C@H](O)[C@@H](CO)O1 [geranyl-3′-keto-2′-deoxyglucopyranoside, (2R,3R)-6-(((E)-3,7-dimethylocta-2,6-dien-1-yl)oxy)-3-hydroxy-2-(hydroxymethyl)tetrahydro-4H-pyran-4-one]
stability / geraniol release (in words) ([1]; 32° C.): generates geraniol at both pH 5.8 and pH 7.4
rate of geraniol release compared with other ketoglycosides (in words) ([1]; similar conditions): greater than observed from geranyl-O-β-D-3′-ketoglucopyranoside under similar conditions

% Conversion by 1H-NMR ([3]; D2O, 0 h): 0%
% Conversion by 1H-NMR ([3]; D2O, 1.5 h): 0%
% Conversion by 1H-NMR ([3]; D2O, 22 h): 0%
% Conversion by 1H-NMR ([3]; D2O, 48 h): 0%
% Conversion by 1H-NMR ([3]; D2O, 216 h): 0%
% Conversion by 1H-NMR ([3]; pH 5.8, 0 h): 0%
% Conversion by 1H-NMR ([3]; pH 5.8, 1.5 h): 5%
% Conversion by 1H-NMR ([3]; pH 5.8, 22 h): 25%
% Conversion by 1H-NMR ([3]; pH 5.8, 48 h): 32%
% Conversion by 1H-NMR ([3]; pH 5.8, 216 h): 39%
% Conversion by 1H-NMR ([3]; pH 7.4, 0 h): 0%
% Conversion by 1H-NMR ([3]; pH 7.4, 1.5 h): 5%
% Conversion by 1H-NMR ([3]; pH 7.4, 22 h): 88%
% Conversion by 1H-NMR ([3]; pH 7.4, 48 h): 100%
% Conversion by 1H-NMR ([3]; pH 7.4, 216 h): 100%
SMILES: CC(=O)N[C@@H]1C(=O)[C@H](O)[C@@H](CO)O[C@H]1OC/C=C(\C)CCC=C(C)C [N-((2R,3S,5R,6R)-2-(((E)-3,7-dimethylocta-2,6-dien-1-yl)oxy)-5-hydroxy-6-(hydroxymethyl)-4-oxotetrahydro-2H-pyran-3-yl)acetamide]
stability / geraniol release (in words) [3]: generates geraniol at both pH 5.8 and pH 7.4
rate of geraniol release compared with other ketoglycosides (in words) ([3]; similar conditions): greater than observed from geranyl-3′-keto-2′-deoxyglucopyranoside (Example 25) or geranyl-O-β-D-3′-ketoglucopyranoside (Example 17) under similar conditions

SMILES: CO[C@H]1O[C@H](CO)[C@@H](O)[C@H](O)[C@@H]1O [methyl-O-α-D-mannopyranoside, (2R,3S,4S,5S,6S)-2-(hydroxymethyl)-6-methoxytetrahydro-2H-pyran-3,4,5-triol]
stability / methanol release (in words) ([2]; 32° C.): remains stable at pH 7.4 and in water
% Conversion by 1H-NMR ([2]; D2O, 0 h): 0%
% Conversion by 1H-NMR ([2]; D2O, 22 h): 0%
% Conversion by 1H-NMR ([2]; D2O, 96 h): 0%
% Conversion by 1H-NMR ([2]; pH 7.4, 0 h): 0%
% Conversion by 1H-NMR ([2]; pH 7.4, 22 h): 0%
% Conversion by 1H-NMR ([2]; pH 7.4, 96 h): 0%
% Conversion by 1H-NMR ([2]; pH 7.4, 192 h): 0%

ratio of the sum of aromatic/α-ketoglucoside proton integrals ([4]; Reaction 1, D2O, 0 h): 6.9
ratio of α-/β-ketoglucoside proton integrals ([4]; Reaction 1, D2O, 0 h): 1.0
ratio of the sum of aromatic/α-ketoglucoside proton integrals ([4]; Reaction 1, D2O, 20 h): 7.1
ratio of α-/β-ketoglucoside proton integrals ([4]; Reaction 1, D2O, 20 h): 1.2
ratio of the sum of aromatic/α-ketoglucoside proton integrals ([4]; Reaction 1, D2O, 45 h): 6.8
ratio of α-/β-ketoglucoside proton integrals ([4]; Reaction 1, D2O, 45 h): 1.3
ratio of α-/β-ketoglucoside proton integrals ([4]; Reaction 1, D2O, 72 h): 1.3
ratio of the sum of aromatic/α-ketoglucoside proton integrals ([4]; Reaction 1, D2O, 143 h): 6.2
ratio of the sum of aromatic/α-ketoglucoside proton integrals [4, 5]: 5.7
ratio of α-/β-ketoglucoside proton integrals [4, 5]: 1.2
ratio of the sum of aromatic/α-ketoglucoside proton integrals [4, 6]: 9.3
ratio of α-/β-ketoglucoside proton integrals [4, 6]: 0.8
ratio of the sum of aromatic/α-ketoglucoside proton integrals [4, 7]: 14.2
ratio of α-/β-ketoglucoside proton integrals [4, 7]: 0.7
ratio of α-/β-ketoglucoside proton integrals ([4]; Reaction 2, 0.1M sodium phosphate buffer, pH 5.8, 72 h): 0.35
ratio of the sum of aromatic/α-ketoglucoside proton integrals ([4]; Reaction 2, 0.1M sodium phosphate buffer, pH 5.8, 143 h): 30.2
SMILES: O=C1[C@@H](O)[C@@H](Oc2ccc([N+](=O)[O-])cc2)O[C@H](CO)[C@H]1O
